# In patent US20250304623A1, “PEPTIDES FOR INTRACELLULAR DELIVERY” (UNIVERSIDADE DE SANTIAGO DE COMPOSTELA, priority 2022, published 2025):
# *: point of attachment. NHNH2 = NN*
# What was measured:
# Assay type in all cases: cell-based
# Hela cells = test: RLuc pDNA delivery, robotic library screening, HeLa; conditions: Hela
# Method: Cells were seeded in a 96 well plate the day before the experiment at a concentration of 60,000 cell/mL (100 μL/w) in DMEM+10% FBS+1% Gln-Abt. For robotic library screening, the delivery of pDNA encoding for the expression of Renilla luciferase gene (RLuc, pRL-CMV (Promega, #E2261)) in six different cell lines was performed. […] The mixture was shaken for 30 min at room temperature before the addition to the cells. The cell medium was aspirated, and cells were washed twice with PBS. Finally, 50 μL of the complex's solution were added to the cells and incubated for 4 h. After the incubation, the medium was replaced by 100 μL of fresh DMEM supplemented with 10% FBS. 72 hours after transfection the DMEM was removed, cells were washed once with HBSS and 90 μL of HBSS were added to each well. Cells were incubated at 37° C. for 30 minutes. Then basal luminescence levels were read in a plate reader. Immediately, 10 μL of coelenterazine h in HBSS were added to each well (5 μM final concentration) and cells were incubated at 37° C. for 10 minutes. Finally, the total luminescence measurement of the plates was performed. Amphiphile transfection efficiency was compared and normalized to Lipofectamine® 2000 efficiency (value of 1 in Tables 1-5 and 7; bold numbers). All experiments were done in triplicate.
# (§1) Tables 1-7: RLuc (pDNA) or EGFP (mRNA) expression levels were normalized to Lipofectamine reagents (value=1) and expressed as fold-times signal increase. In the case of siRNA, the siRNA treated cells fluorescence was compared with siMOCK control fluorescence, while Cas9-RNP mediated knockout was measured against the fluorescence of untreated cells. In both siRNA and Cas9-RNP, values are expressed as % fluorescence reduction. Amphiphile concentration was 5 μM in all cases. All experiments were performed in triplicate.
# (§2) Tables 8-13 show the mean (triplicates) luminescent intensity (RLU) measured after the transfection of RLuc pDNA by different amphiphiles at different concentrations in a variety of cell lines. Background luminescence values, accounted by untransfected control cells, were subtracted for processing.
# HepG2 cells = test: RLuc pDNA delivery, robotic library screening, HepG2
# Method: (§3) Cells were seeded in a 96 well plate the day before the experiment at a concentration of 60,000 cell/mL (100 μL/w) in DMEM+10% FBS+1% Gln-Abt. For robotic library screening, the delivery of pDNA encoding for the expression of Renilla luciferase gene (RLuc, pRL-CMV (Promega, #E2261)) in six different cell lines was performed. Amphihilic molecule stock solutions in DMSO were diluted with DMEM and freshly mixed with pDNA stock solutions in DMEM prior to transfection experiments, to afford several complexes at different amphiphile concentration (2-10 μM) while maintaining a constant final pDNA concentration of 2 ng/μL. The mixture was shaken for 30 min at room temperature before the addition to the cells. The cell medium was aspirated, and cells were washed twice with PBS. Finally, 50 μL of the complex's solution were added to the cells and incubated for 4 h. After the incubation, the medium was replaced by 100 μL of fresh DMEM supplemented with 10% FBS. 72 hours after transfection the DMEM was removed, cells were washed once with HBSS and 90 μL of HBSS were added to each well. Cells were incubated at 37° C. for 30 minutes. Then basal luminescence levels were read in a plate reader. Immediately, 10 μL of coelenterazine h in HBSS were added to each well (5 μM final concentration) and cells were incubated at 37° C. for 10 minutes. Finally, the total luminescence measurement of the plates was performed. Amphiphile transfection efficiency was compared and normalized to Lipofectamine® 2000 efficiency (value of 1 in Tables 1-5 and 7; bold numbers). All experiments were done in triplicate.
# as §1, §2
# A549 cells = test: RLuc pDNA delivery, robotic library screening, A549
# Method: as §3, §1, §2
# Hek293 cells = test: RLuc pDNA delivery, robotic library screening, Hek293
# HCT116 cells = test: RLuc pDNA delivery, robotic library screening, HCT116
# ARPE19 cells = test: RLuc pDNA delivery, robotic library screening, ARPE19
substance,measurement,setting,value
"Ac-RRLK*RK*LRRLK*RL-NH2 (Ac-RRLK(NHNH2)RK(NHNH2)LRRLK(NHNH2)RL-NH2; not fully specified; printed as Ac-RRLK*RK*LRRLK*RL-NH2; also: K*4,K*6,K*11: native or modified lysine (ε-amide to a linker)) [13(2 + 1)]",mean luminescent intensity (RLuc pDNA),"Hela cells; Myristoleyl, 5 μM",564 RLU
same,mean luminescent intensity (RLuc pDNA),"Hela cells; Myristoleyl, 10 μM",379 RLU
same,mean luminescent intensity (RLuc pDNA),"Hela cells; Myristoleyl, 15 μM",452 RLU
same,mean luminescent intensity (RLuc pDNA),"Hela cells; Palmitoleyl, 5 μM",1206 RLU
same,mean luminescent intensity (RLuc pDNA),"HepG2 cells; Dodecanal, 5 μM",322366 RLU
same,mean luminescent intensity (RLuc pDNA),"HepG2 cells; Dodecanal, 10 μM",17040 RLU
same,mean luminescent intensity (RLuc pDNA),"HepG2 cells; Dodecanal, 15 μM",2698 RLU
same,mean luminescent intensity (RLuc pDNA),"HepG2 cells; Myristoleyl, 5 μM",418253 RLU
same,mean luminescent intensity (RLuc pDNA),"HepG2 cells; Myristoleyl, 10 μM",85339 RLU
same,mean luminescent intensity (RLuc pDNA),"HepG2 cells; Myristoleyl, 15 μM",23239 RLU
same,mean luminescent intensity (RLuc pDNA),"HepG2 cells; Oleyl, 5 μM",116466 RLU
same,mean luminescent intensity (RLuc pDNA),"HepG2 cells; Palmitoleyl, 5 μM",353987 RLU
same,mean luminescent intensity (RLuc pDNA),"HepG2 cells; Palmitoleyl, 10 μM",97075 RLU
same,mean luminescent intensity (RLuc pDNA),"HepG2 cells; Petroselinyl, 5 μM",168828 RLU
same,mean luminescent intensity (RLuc pDNA),"A549 cells; Dodecanal, 5 μM",24508 RLU
same,mean luminescent intensity (RLuc pDNA),"A549 cells; Dodecanal, 10 μM",1332 RLU
same,mean luminescent intensity (RLuc pDNA),"A549 cells; Myristoleyl, 5 μM",11594 RLU
same,mean luminescent intensity (RLuc pDNA),"A549 cells; Myristoleyl, 10 μM",2240 RLU
same,mean luminescent intensity (RLuc pDNA),"A549 cells; Oleyl, 5 μM",3288 RLU
same,mean luminescent intensity (RLuc pDNA),"A549 cells; Palmitoleyl, 5 μM",22640 RLU
same,mean luminescent intensity (RLuc pDNA),"A549 cells; Palmitoleyl, 10 μM",4550 RLU
same,mean luminescent intensity (RLuc pDNA),"A549 cells; Petroselinyl, 5 μM",19295 RLU
same,mean luminescent intensity (RLuc pDNA),"A549 cells; Petroselinyl, 15 μM",2435 RLU
same,mean luminescent intensity (RLuc pDNA),"Hek293 cells; Dodecanal, 5 μM",269506 RLU
same,mean luminescent intensity (RLuc pDNA),"Hek293 cells; Palmitoleyl, 10 μM",59470 RLU
same,mean luminescent intensity (RLuc pDNA),"Hek293 cells; Petroselinyl, 5 μM",78739 RLU
same,mean luminescent intensity (RLuc pDNA),"Hek293 cells; Petroselinyl, 10 μM",31561 RLU
same,mean luminescent intensity (RLuc pDNA),"HCT116 cells; Dodecanal, 5 μM",132238 RLU
same,mean luminescent intensity (RLuc pDNA),"HCT116 cells; Dodecanal, 10 μM",6721 RLU
same,mean luminescent intensity (RLuc pDNA),"HCT116 cells; Dodecanal, 15 μM",2207 RLU
same,mean luminescent intensity (RLuc pDNA),"HCT116 cells; Myristoleyl, 5 μM",70015 RLU
same,mean luminescent intensity (RLuc pDNA),"HCT116 cells; Myristoleyl, 15 μM",1114 RLU
same,mean luminescent intensity (RLuc pDNA),"HCT116 cells; Palmitoleyl, 5 μM",105588 RLU
same,mean luminescent intensity (RLuc pDNA),"HCT116 cells; Petroselinyl, 5 μM",70216 RLU
same,mean luminescent intensity (RLuc pDNA),"ARPE19 cells; Dodecanal, 5 μM",10116 RLU
same,mean luminescent intensity (RLuc pDNA),"ARPE19 cells; Myristoleyl, 5 μM",2549 RLU
same,mean luminescent intensity (RLuc pDNA),"ARPE19 cells; Myristoleyl, 10 μM",−28 RLU
same,mean luminescent intensity (RLuc pDNA),"ARPE19 cells; Myristoleyl, 15 μM",−36 RLU
same,mean luminescent intensity (RLuc pDNA),"ARPE19 cells; Palmitoleyl, 5 μM",5094 RLU
same,mean luminescent intensity (RLuc pDNA),"ARPE19 cells; Petroselinyl, 5 μM",4118 RLU
